3 compounds from US10870647B2, “Imidazopyridine derivative, method for preparing same, and pharmaceutical composition containing same as active ingredient for preventing or treating cancer” (DAEGU-GYEONGBUK MEDICAL INNOVATION FOUNDATION, priority 2016, dated 2020) can be followed below.

Structures are written as SMILES. Where two headings read alike, the source gives them in different places.

Common to all, as to experiment: Kinase selectivity, scanMAX Kinase assay panel (DiscoverX), % control at 1 uM
Common to all, as to type: binding

Assay [1] concerns the target T1, scanMAX Kinase assay panel (Homo sapiens, UniProt P50613).
T1 construct: purchased DiscoverX
The settings on record: CDK7; 1 uM; read-out: Percent Control (%). The essentials:
(§1)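 Each kinase was first exposed to the test compound at 1 uM in DMSO. Signal was then normalised to positive and negative controls to give % control. Finally, any enzyme showing <35% control was judged inhibited.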

Assay [2] deals with T2, scanMAX Kinase assay panel (Homo sapiens, UniProt P07949).
T2 construct: purchased DiscoverX
The settings on record: RET; 1 uM; read-out: Percent Control (%). The method, boiled down: as §1

The target of assay [3] is T3, scanMAX Kinase assay panel (Homo sapiens, UniProt Q9BRS2).
T3 construct: purchased DiscoverX
T3 sequence (Q9BRS2 1-568): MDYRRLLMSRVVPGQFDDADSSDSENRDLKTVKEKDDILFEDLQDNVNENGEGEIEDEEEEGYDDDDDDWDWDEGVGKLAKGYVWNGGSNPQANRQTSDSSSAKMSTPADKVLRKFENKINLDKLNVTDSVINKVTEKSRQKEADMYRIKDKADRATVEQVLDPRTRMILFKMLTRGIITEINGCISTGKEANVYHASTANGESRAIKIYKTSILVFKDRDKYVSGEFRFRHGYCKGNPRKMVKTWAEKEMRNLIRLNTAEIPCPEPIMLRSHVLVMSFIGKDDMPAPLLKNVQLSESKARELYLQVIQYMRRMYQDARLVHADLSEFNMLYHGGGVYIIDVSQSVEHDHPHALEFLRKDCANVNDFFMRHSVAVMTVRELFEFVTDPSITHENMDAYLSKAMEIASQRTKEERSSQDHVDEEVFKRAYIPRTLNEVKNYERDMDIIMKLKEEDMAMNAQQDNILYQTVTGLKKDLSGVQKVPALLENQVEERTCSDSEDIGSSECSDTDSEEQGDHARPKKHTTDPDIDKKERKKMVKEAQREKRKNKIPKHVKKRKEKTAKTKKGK
The settings on record: RIOK1; 1 uM; read-out: Percent Control (%). The method, boiled down:
as §1

In assay [4] the target is T4, scanMAX Kinase assay panel (Homo sapiens, UniProt P42336, E545K).
T4 construct: purchased DiscoverX
The settings on record: PIK3CA (E545K); 1 uM; read-out: Percent Control (%). The method, boiled down:
as §1

The target of assay [5] is T5, scanMAX Kinase assay panel (Homo sapiens, UniProt P07947).
T5 construct: purchased DiscoverX
The settings on record: YES; 1 uM; read-out: Percent Control (%). The essentials:
as §1

Assay [6] deals with T6, scanMAX Kinase assay panel (Homo sapiens, UniProt Q9H2X6).
T6 construct: purchased DiscoverX
The settings on record: HIPK2; 1 uM; read-out: Percent Control (%). The essentials:
as §1

Assay [7] concerns the target T7, scanMAX Kinase assay panel (Homo sapiens, UniProt P51812).
T7 construct: purchased DiscoverX
The settings on record: 1 uM, read-out: Percent Control (%). The essentials:
as §1

Assay [8] addresses T8, scanMAX Kinase assay panel (Homo sapiens, UniProt Q13470).
T8 construct: purchased DiscoverX
T8 sequence (Q13470 1-666): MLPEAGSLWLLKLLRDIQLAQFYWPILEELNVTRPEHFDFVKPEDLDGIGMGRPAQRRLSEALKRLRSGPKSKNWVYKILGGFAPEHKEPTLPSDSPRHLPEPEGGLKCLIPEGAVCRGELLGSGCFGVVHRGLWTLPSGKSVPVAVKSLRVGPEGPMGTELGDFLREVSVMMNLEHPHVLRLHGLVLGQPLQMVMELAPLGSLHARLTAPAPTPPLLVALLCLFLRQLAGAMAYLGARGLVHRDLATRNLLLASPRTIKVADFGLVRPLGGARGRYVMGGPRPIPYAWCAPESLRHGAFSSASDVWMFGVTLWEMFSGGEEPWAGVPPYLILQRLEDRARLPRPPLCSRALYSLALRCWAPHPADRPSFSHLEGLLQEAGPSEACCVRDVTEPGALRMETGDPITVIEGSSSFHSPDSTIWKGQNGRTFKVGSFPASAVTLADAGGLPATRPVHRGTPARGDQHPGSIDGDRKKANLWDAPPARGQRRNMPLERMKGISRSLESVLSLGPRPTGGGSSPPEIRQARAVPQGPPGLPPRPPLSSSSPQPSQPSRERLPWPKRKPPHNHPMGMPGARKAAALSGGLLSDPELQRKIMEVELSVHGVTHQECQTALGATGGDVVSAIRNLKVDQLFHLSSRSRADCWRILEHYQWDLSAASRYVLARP
The settings on record: TNK1; 1 uM; read-out: Percent Control (%). The method, boiled down:
as §1

The target in assay [9] is T9, scanMAX Kinase assay panel (Homo sapiens, UniProt P42680).
T9 construct: purchased DiscoverX
T9 sequence (P42680 1-631): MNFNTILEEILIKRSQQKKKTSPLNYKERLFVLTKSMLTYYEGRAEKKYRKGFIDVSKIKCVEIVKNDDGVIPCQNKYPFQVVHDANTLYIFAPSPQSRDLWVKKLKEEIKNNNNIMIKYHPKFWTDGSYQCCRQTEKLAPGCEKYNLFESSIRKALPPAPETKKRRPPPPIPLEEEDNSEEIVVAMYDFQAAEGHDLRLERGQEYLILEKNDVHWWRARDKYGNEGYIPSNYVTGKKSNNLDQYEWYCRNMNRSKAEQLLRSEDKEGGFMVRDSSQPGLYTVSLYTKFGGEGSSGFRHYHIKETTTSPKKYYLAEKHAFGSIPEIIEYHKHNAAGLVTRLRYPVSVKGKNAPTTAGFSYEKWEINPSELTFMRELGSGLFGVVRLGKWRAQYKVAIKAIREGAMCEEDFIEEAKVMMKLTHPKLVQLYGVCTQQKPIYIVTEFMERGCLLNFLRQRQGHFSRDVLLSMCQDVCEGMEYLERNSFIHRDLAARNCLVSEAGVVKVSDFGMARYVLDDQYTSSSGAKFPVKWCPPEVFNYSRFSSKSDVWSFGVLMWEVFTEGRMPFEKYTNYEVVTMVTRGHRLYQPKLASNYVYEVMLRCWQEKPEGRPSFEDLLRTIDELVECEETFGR
The settings on record: TEC; 1 uM; read-out: Percent Control (%). The essentials:
as §1

For assay [10], the target named is T10, scanMAX Kinase assay panel (Homo sapiens, UniProt P08581).
T10 construct: purchased DiscoverX
The settings on record: MET; 1 uM; read-out: Percent Control (%). The method, boiled down: as §1

T1 sequence (P50613 whole entry): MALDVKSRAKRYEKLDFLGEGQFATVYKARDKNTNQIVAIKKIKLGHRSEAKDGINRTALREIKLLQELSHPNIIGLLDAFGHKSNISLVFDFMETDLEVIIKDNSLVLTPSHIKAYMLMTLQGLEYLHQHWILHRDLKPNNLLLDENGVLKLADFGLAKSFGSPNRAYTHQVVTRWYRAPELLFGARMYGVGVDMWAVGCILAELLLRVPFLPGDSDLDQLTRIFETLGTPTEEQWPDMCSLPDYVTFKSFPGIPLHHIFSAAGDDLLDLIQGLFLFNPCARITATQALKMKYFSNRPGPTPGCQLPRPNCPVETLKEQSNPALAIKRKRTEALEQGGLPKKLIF
T10 sequence (P08581 25-1390): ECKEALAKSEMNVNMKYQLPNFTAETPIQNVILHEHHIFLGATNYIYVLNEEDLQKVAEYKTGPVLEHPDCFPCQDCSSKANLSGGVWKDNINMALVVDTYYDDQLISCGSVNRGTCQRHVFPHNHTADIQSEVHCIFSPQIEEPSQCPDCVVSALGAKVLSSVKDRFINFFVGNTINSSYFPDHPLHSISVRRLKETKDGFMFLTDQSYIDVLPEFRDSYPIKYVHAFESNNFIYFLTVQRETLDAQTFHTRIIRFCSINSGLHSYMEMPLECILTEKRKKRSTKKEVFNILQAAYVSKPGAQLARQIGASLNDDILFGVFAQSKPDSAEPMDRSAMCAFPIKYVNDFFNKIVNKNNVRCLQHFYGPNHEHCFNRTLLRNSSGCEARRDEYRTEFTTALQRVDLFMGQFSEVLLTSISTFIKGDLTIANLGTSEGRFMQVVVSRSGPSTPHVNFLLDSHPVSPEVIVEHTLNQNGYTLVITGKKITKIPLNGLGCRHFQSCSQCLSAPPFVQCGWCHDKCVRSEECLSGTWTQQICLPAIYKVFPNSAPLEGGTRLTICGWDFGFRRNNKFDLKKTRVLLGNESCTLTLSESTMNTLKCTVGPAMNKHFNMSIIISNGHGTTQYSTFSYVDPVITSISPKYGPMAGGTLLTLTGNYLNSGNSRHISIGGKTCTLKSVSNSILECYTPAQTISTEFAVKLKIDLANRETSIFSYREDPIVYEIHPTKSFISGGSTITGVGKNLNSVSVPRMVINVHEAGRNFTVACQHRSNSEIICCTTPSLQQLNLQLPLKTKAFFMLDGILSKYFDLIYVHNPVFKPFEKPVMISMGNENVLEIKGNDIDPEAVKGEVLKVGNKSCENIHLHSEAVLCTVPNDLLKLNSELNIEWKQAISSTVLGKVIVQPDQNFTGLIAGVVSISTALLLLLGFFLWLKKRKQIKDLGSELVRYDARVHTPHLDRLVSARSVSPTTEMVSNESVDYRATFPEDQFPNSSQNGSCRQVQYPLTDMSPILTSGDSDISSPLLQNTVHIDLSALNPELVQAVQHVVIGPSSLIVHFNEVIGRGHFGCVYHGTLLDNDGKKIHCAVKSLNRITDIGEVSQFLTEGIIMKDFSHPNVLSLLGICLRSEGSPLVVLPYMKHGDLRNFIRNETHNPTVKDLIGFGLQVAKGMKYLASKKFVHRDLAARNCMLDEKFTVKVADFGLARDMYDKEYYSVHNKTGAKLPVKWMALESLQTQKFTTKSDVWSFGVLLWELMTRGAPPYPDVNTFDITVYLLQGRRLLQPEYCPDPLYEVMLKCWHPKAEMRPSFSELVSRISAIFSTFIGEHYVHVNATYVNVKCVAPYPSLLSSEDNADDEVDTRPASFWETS
T2 sequence (P07949 29-1114): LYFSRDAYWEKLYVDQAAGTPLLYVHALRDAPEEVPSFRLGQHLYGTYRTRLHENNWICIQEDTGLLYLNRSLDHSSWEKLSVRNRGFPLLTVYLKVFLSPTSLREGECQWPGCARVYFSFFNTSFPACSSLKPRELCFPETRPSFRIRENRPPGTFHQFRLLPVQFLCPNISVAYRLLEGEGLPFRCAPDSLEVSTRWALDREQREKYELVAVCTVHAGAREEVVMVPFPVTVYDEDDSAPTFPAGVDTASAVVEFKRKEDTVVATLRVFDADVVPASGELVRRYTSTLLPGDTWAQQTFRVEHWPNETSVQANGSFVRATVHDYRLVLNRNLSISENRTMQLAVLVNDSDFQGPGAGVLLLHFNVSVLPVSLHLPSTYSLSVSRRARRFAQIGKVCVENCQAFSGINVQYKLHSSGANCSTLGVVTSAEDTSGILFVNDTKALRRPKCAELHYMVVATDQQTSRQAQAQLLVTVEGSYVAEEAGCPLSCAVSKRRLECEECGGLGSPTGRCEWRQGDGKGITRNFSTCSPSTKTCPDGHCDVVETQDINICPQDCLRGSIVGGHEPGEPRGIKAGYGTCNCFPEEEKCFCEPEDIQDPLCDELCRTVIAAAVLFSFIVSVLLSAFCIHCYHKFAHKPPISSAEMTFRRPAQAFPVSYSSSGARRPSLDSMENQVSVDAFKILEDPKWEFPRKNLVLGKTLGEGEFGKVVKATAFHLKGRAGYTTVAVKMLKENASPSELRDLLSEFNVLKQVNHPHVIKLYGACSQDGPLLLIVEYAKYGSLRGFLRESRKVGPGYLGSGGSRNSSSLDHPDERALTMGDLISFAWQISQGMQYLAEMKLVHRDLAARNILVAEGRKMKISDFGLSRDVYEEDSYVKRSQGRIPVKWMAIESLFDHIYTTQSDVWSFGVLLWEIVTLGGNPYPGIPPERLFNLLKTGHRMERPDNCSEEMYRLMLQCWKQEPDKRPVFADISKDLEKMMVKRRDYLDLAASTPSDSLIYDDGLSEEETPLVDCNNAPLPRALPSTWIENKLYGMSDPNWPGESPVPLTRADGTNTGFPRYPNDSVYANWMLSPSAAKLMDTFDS
T5 sequence (P07947 whole entry): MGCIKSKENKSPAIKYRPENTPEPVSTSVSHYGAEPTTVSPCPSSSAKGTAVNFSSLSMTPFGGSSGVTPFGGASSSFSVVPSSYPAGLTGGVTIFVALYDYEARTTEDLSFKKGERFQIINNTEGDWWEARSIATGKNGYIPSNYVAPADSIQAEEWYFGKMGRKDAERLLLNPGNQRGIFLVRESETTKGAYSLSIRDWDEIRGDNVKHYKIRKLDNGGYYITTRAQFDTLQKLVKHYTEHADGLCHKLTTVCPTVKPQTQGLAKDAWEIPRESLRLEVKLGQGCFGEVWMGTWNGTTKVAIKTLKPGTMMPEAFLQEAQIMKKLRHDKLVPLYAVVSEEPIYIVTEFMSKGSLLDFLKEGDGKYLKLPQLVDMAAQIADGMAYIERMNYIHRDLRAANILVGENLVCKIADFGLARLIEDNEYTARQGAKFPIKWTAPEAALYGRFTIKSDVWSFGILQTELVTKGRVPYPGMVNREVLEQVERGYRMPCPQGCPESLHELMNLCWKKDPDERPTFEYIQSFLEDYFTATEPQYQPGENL
T7 sequence (P51812 whole entry): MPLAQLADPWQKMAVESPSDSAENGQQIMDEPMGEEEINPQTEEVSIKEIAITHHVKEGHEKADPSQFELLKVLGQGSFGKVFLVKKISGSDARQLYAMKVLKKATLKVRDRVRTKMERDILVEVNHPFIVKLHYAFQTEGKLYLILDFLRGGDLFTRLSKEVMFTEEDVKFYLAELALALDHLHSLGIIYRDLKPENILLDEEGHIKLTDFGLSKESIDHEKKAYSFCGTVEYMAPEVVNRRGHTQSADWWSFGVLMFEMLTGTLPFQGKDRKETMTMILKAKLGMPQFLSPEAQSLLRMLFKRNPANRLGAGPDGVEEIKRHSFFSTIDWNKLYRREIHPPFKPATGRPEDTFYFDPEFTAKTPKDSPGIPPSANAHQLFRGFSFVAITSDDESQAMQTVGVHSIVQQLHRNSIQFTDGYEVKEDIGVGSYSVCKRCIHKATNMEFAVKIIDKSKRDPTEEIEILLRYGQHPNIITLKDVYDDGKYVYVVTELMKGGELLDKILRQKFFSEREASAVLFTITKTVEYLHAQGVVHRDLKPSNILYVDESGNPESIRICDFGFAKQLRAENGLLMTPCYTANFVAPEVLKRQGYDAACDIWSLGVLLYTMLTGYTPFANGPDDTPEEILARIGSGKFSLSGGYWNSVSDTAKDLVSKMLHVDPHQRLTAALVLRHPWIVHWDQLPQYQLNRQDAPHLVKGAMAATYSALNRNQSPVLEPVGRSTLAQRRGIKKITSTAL

As to `Cc1ccc(C(=O)Nc2ccc(CN3CCN(C)CC3)c(C(F)(F)F)c2)cc1C#Cc1cnc2c(Nc3cnn(C)c3)cccn12` [Example 1, 4-methyl-3-((8-((1-methyl-1H-pyrazol-4-yl)amino)imidazo[1,2-a]pyridin-3-yl)ethynyl)-N-(4-((4-methylpiperazin-1-yl)methyl)-3-(trifluoromethyl)phenyl)benzamide], the remaining binding at 1 µM in assay [1] worked out at 4%; in assay [2], 0%; in assay [3], 77%; in assay [4] it was 81%; in assay [5], 1%; in assay [6], 61%. The remaining binding at 1 µM in assay [7] (RSK2 (Kin.Dom.1-N-terminal)) came out at 35%; in assay [7] (RSK2 (Kin.Dom.2-C-terminal)) it was 93%; in [8], 0%; in assay [9], 0%; in assay [10], 18%.
For `Cc1cn(-c2cc(NC(=O)c3ccc(C)c(C#Cc4cnc5c(Nc6cnn(C)c6)cccn45)c3)cc(C(F)(F)F)c2)cn1` [Example 12, 4-methyl-N-(3-(4-methyl-1H-imidazol-1-yl)-5-(trifluoromethyl)phenyl)-3-((8-((1-methyl-1H-pyrazol-4-yl)amino)imidazo[1,2-a]pyridin-3-yl)ethynyl)benzamide], the remaining binding at 1 µM in assay [1] turned out to be 66%; in assay [2], 1%; in assay [3] it was 91%; in assay [4], 77%; in assay [5], 2%; in assay [6], 100%. For the same compound, the remaining binding at 1 µM in assay [7] (RSK2 (Kin.Dom.1-N-terminal)) stood at 100%; in [7] (RSK2 (Kin.Dom.2-C-terminal)), 94%; in assay [8], 19%; in [9] it was 8%; in assay [10], 47%.
In the case of `Cc1ccc(NC(=O)C2(C(=O)Nc3ccc(F)cc3)CC2)cc1C#Cc1cnc2c(Nc3cnn(C(C)C)c3)cccn12` [Example 78], the remaining binding at 1 µM in assay [1] came out at 82%; in assay [2] it was 97%; in assay [3], 100%; in assay [4], 92%; in assay [5], 100%; in [6], 100%. The remaining binding at 1 µM is 99% in assay [7] (RSK2 (Kin.Dom.1-N-terminal)); 81% in assay [7] (RSK2 (Kin.Dom.2-C-terminal)); 100% in assay [8]; 100% in assay [9]; 100% in [10].
